The values below come from ChEMBL document CHEMBL4699395, “Synthesis and evaluation of novel 2,4-disubstituted arylthiazoles against T. brucei” (RSC Med Chem, 2020).

Data set [1] has as its system Trypanosoma brucei. Description: Antitrypanosomal activity against Trypanosoma brucei 427 bloodstream form assessed as concentration required to inhibit 50% parasite growth incubated for 48 hrs by Alamar blue assay. As to conditions: Trypanosoma brucei, 427, 48 h. In kind it is functional, organism-based.
Data set [2] can be described thus: Selectivity index, ratio of IC50 for rat L6 cells assessed as cell growth inhibition incubated for 6 days by Alamar blue assay to IC50 for Trypanosoma brucei 427 bloodstream form assessed as parasite growth inhibition incubated for 48 hrs by Alamar blue assay. The note with it: L6 cells (versus Trypanosoma brucei 427 bloodstream form).

pIC50: −log10 of the molar value.

Regarding `N=C(N)Nc1nc(-c2ccc(C34CC5CC(CC(C5)C3)C4)cc2)cs1`, the pIC50 in data set [1] is 5.00.

On to `NCc1nc(-c2ccc(C34CC5CC(CC(C5)C3)C4)cc2)cs1`, for which the selectivity ratio at 48 h in data set [2] was less than 1.
